Source: patent US20060004029A1, “Nitrogen-containing aromatic derivatives” (priority 2003, published 2006)

How the values were obtained:
[1] = test system: Human Umbilical Vein Endothelial Cells (HUVECs); test: Inhibition against sandwich tube formation by vascular endothelial cells, VEGF-stimulated; type: cell-based; details: HUVEC, 25 ng/ml VEGF and 10 ng/ml EGF, 4th day after addition
Protocol: (§1) Human Umbilical Vein Endothelial Cells (HUVECs) were isolated according to a reported method (Shinseikagaku Jikken Koza [New Biochemistry Experiment Lectures], “Saibo Baiyo Gijutsu” [Cell Culturing Techniques], p. 197-202), • and were cultured in a 5% CO2 incubator (37° C.) using EGM-2 medium (purchased from Clonetics Corp.) until the cells reached confluency.
(§2) An ice-cooled mixture of collagen: 5×RPMI 1640: reconstitution buffer (all purchased from Nitta Gelatin, Inc.) at 7:2:1 was dispensed at 0.4 ml into each well of a 24-well plate. After the solution was gelled by being stationed for 40 minutes in a 5% CO2 incubator (37° C.), HUVEC cell suspension was added at 0.4 ml to each well (using 1 to 1.2×10^5 cells, though the numbers of cells differ slightly according to the HUVEC lot), the HUVEC cell suspension being in human endothelial serum free medium (SFM, purchased from GIBCO BRL) containing added angiogenesis factors [20 ng/ml FGF2 (purchased from GIBCO BRL) and 10 ng/ml EGF (purchased from GIBCO BRL), or 25 ng/ml VEGF (purchased from Wako Pure Chemical Industries Co., Ltd.) and 10 ng/ml EGF, or 30 ng/ml HGF (purchased from R&D Co.) and 10 ng/ml EGF], and cultured overnight in a 5% CO2 incubator (37° C.). On the following day, the medium on the upper layer was aspirated off, and then 0.4 ml of an ice-cooled mixture of collagen: 5×RPMI 1640: reconstitution buffer (all purchased from Nitta Gelatin, Inc.) at 7:2:1 was superposed into each well prior to stationing for 4 hours in a 5% CO2 incubator (37° C.) for gelling. After adding 1.5 ml of an SFM solution containing each of the aforementioned angiogenesis factors and a diluted test substance onto the upper layer, culturing was performed in a 5% CO2 incubator (37° C.). Upon aspirating off the culture supernatant in each well on the 4th day after addition of the test substance, 0.4 ml of a 3.3 mg/ml MTT solution dissolved in PBS (purchased from Sigma Corp.) was added to each well and culturing was performed for approximately 2 hours in a 5% CO2 incubator (37° C.). The tubes formed in the collagen gel of each well were stained by MTT, the tube images were loaded into a computer (Macintosh), and the total length of the tubes was determined by image analysis software “MacScope” (purchased from Mitani Corp.). The ratio of the total length of the tubes formed in the well containing the test substance with respect to the total length of the tubes formed in the well containing no test substance was expressed as a percentage, and the concentration of each test substance required for 50% inhibition of tube formation (IC50) was determined from the ratio value.

[2] = test system: Human Umbilical Vein Endothelial Cells (HUVECs); test: Inhibition against sandwich tube formation by vascular endothelial cells, FGF2-stimulated; type: cell-based; details: HUVEC, 20 ng/ml FGF2 and 10 ng/ml EGF, 4th day after addition
Protocol: as §1, §2

**Q.** How did the IC50 [1] turn out when `CCNC(=O)n1ccc2cc(Oc3ccnc(NC(=O)N4CCC(C)(O)CC4)c3)ccc21` [Example 78, 5-(2-(((4-Hydroxy-4-methylpiperidin-1-yl)carbonyl)amino)pyridin-4-yloxy)-1H-indole-1-carboxylic acid ethylamide] was run?
**A.** 3 nM

**Q.** And the IC50 [2]?
**A.** 450 nM
